Source: patent US20020049223A1, “Quinoline and naphthyridine carboxylic acid antibacterials” (priority 1999, published 2002)
Where a name gives a salt, the structure may show the parent alone.

What was measured:
[1] = tested on: Streptococcus pneumoniae ATCC 6303; assay: Assay B: in vitro antibacterial activity, broth microdilution MIC (NCCLS); assay type: cell-based; settings: Table 2, Assay B, Mueller Hinton broth with 3% lysed horse blood, 20 to 24 hr; code F = Streptococcus pneumoniae ATCC 6303; unit assumed
In short: (§1)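 Growth inhibition read by eye after incubation at 35° C (16 to 20 hr; 20 to 24 hr for S. pneumoniae and H. influenzae). Medium: cation-adjusted Mueller Hinton broth, supplemented with 3% lysed horse blood or with 5 g/L yeast extract, 0.3 mmol/L hematin and 15 mg/L NAD, respectively.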

[2] = tested on: Enterococcus faecalis PIU 1967; assay: as above; assay type: cell-based; settings: Table 2, Assay B, cation-adjusted Mueller Hinton broth, 35° C., 16 to 20 hr; code B = Enterococcus faecalis PIU 1967; unit assumed
In short: as §1

[3] = tested on: Staphylococcus aureus ATCC 6538P; assay: as above; assay type: cell-based; settings: Table 2, Assay B, cation-adjusted Mueller Hinton broth, 35° C., 16 to 20 hr; code A = Staphylococcus aureus ATCC 6538P; unit assumed
In short: as §1

Escherichia coli JUHL = assay: as above; assay type: cell-based; settings: Table 2, Assay B, cation-adjusted Mueller Hinton broth, 35° C., 16 to 20 hr; code D = Escherichia coli JUHL; unit assumed
In short: as §1

[4] = tested on: Haemophilus influenzae DILL AMP R; assay: as above; assay type: cell-based; settings: Table 2, Assay B, Mueller Hinton broth with yeast extract, hematin and NAD, 20 to 24 hr; code E = Haemophilus influenzae DILL AMP R; unit assumed
In short: as §1

melting point	Antibacterial Activity (MIC's), F [1]	Antibacterial Activity (MIC's), B [2]	Antibacterial Activity (MIC's), A [3]	Antibacterial Activity (MIC's), D (Escherichia coli JUHL)	Antibacterial Activity (MIC's), E [4]	Compound
310 to 312 °C	–	–	–	–	–	CC1NCCc2cc(-c3ccc4c(=O)c(C(=O)O)cn(C5CC5)c4n3)sc21.Cl (stereo not shown)
202 to 205 °C (dec.)	–	–	–	–	–	Br.COc1c(-c2cc3c(s2)CCNC3C)ccc2c(=O)c(C(=O)O)cn(C3CC3)c12 (stereo not shown)
266 to 267 °C	–	–	–	–	–	COc1c(-c2cc3c(s2)CCCC3=O)ccc2c(=O)c(C(=O)O)cn(C3CC3)c12 [Example 50, 1-cyclopropyl-8-methoxy-4-oxo-7-(4-oxo-4,5,6,7-tetrahydro-1-benzothien-2-yl)-1,4-dihydro-3-quinolinecarboxylic acid]
298 to 300 °C	–	–	–	–	–	Cl.O=C(O)c1cn(C2CC2)c2nc(-c3cc4c(s3)CNCC4)ccc2c1=O
148 to 153 °C (dec.)	0.015 µg/mL	0.03 µg/mL	0.008 µg/mL	0.06 µg/mL	0.015 µg/mL	COc1c(-c2cc3c(s2)C(N)CCC3)c(F)cc2c(=O)c(C(=O)O)cn(C3CC3)c12.Cl (stereo not shown) [Example 228, 7-(7-amino-4,5,6,7-tetrahydro-1-benzothien-2-yl)-1-cyclopropyl-6-fluoro-8-methoxy-4-oxo-1,4-dihydro-3-quinolinecarboxylic acid hydrochloride]
135 to 138 °C	2 µg/mL	0.5 µg/mL	0.03 µg/mL	8 µg/mL	0.5 µg/mL	COc1c(-c2cc3c(s2)CCC(C)(C)/C3=N\O)ccc2c(=O)c(C(=O)O)cn(C3CC3)c12 [Example 233, 1-cyclopropyl-7-((4E/Z)-4-(hydroxyimino)-5,5-dimethyl-4,5,6,7-tetrahydro-1-benzothien-2-yl)-8-methoxy-4-oxo-1,4-dihydro-3-quinolinecarboxylic acid]
237 to 239 °C	–	–	–	–	–	COc1c(-c2cc3c(s2)CCCC3O)ccc2c(=O)c(C(=O)O)cn(C3CC3)c12 (stereo not shown) [Example 38, 1-cyclopropyl-7-(4-hydroxy-4,5,6,7-tetrahydro-1-benzothien-2-yl)-8-methoxy-4-oxo-1,4-dihydro-3-quinolinecarboxylic acid]
258 to 262 °C (dec.)	–	–	–	–	–	Br.CC1(C)CNCc2cc(-c3nc4c(cc3F)c(=O)c(C(=O)O)cn4C3CC3)sc21
181 to 183 °C	–	–	–	–	–	COc1c(-c2cc3c(s2)CCC/C3=N\OCc2cccnc2)ccc2c(=O)c(C(=O)O)cn(C3CC3)c12 (as salt: hydrochloride) [Example 182, 1-cyclopropyl-8-methoxy-4-oxo-7-((4E)-4-((3-pyridinylmethoxy)imino)-4,5,6,7-tetrahydro-1-benzothien-2-yl)-1,4-dihydro-3-quinolinecarboxylic acid]
295 to 298 °C	–	–	–	–	–	CC1CNCc2sc(-c3ccc4c(=O)c(C(=O)O)cn(C5CC5)c4c3)cc21.Cl (stereo not shown)
212 to 217 °C (dec.)	–	–	–	–	–	Br.COc1c(-c2cc3c(s2)C(C)(C)CNC3)ccc2c(=O)c(C(=O)O)cn(C3CC3)c12
> 300 °C (dec.)	–	–	–	–	–	Br.CC1(C)CNCc2cc(-c3ccc4c(=O)c(C(=O)O)cn(C5CC5)c4c3)sc21
254 to 259 °C	–	–	–	–	–	COc1c(-c2cc3c(s2)CNCC3C)ccc2c(=O)c(C(=O)O)cn(C3CC3)c12.Cl (stereo not shown)
288 to 290 °C	–	–	–	–	–	CC1CNCc2sc(-c3nc4c(cc3F)c(=O)c(C(=O)O)cn4C3CC3)cc21.Cl (stereo not shown)
178 to 179 °C	–	–	–	–	–	COc1c(-c2cc3c(s2)CCC/C3=N\OCc2ccccn2)ccc2c(=O)c(C(=O)O)cn(C3CC3)c12 (as salt: hydrochloride) [Example 183, 1-cyclopropyl-8-methoxy-4-oxo-7-((4E)-4-((2-pyridinylmethoxy)imino)-4,5,6,7-tetrahydro-1-benzothien-2-yl)-1,4-dihydro-3-quinolinecarboxylic acid]
238 to 240 °C	–	–	–	–	–	COc1c(-c2cc3c(s2)C(O)CCC3)ccc2c(=O)c(C(=O)O)cn(C3CC3)c12 (stereo not shown) [Example 41, 1-cyclopropyl-7-(7-hydroxy-4,5,6,7-tetrahydro-1-benzothien-2-yl)-8-methoxy-4-oxo-1,4-dihydro-3-quinolinecarboxylic acid]
205 to 206 °C	–	–	–	–	–	COc1c(-c2cc3c(s2)CCC(CO)=C3)ccc2c(=O)c(C(=O)O)cn(C3CC3)c12 [Example 44, 1-cyclopropyl-7-(5-(hydroxymethyl)-6,7-dihydro-1-benzothien-2-yl)-8-methoxy-4-oxo-1,4-dihydro-3-quinolinecarboxylic acid]
–	0.25 µg/mL	2 µg/mL	0.125 µg/mL	4 µg/mL	0.25 µg/mL	COc1c(-c2cc3c(s2)CC(=O)C3)ccc2c(=O)c(C(=O)O)cn(C3CC3)c12 [Example 247, 1-cyclopropyl-8-methoxy-4-oxo-7-(5-oxo-5,6-dihydro-4H-cyclopenta[b]thien-2-yl)-1,4-dihydro-3-quinolinecarboxylic acid]
–	0.03 µg/mL	0.125 µg/mL	0.015 µg/mL	0.03 µg/mL	0.015 µg/mL	CNC1CCCc2sc(-c3c(F)cc4c(=O)c(C(=O)O)cn(C5CC5)c4c3F)cc21.Cl (stereo not shown) [Example 291, 1-cyclopropyl-6,8-difluoro-7-(4-(methylamino)-4,5,6,7-tetrahydro-1-benzothien-2-yl)-4-oxo-1,4-dihydroquinoline-3-carboxylic acid hydrochloride]
–	0.008 µg/mL	0.03 µg/mL	≤ 0.004 µg/mL	0.125 µg/mL	0.015 µg/mL	CNC1CCCc2sc(-c3c(F)c(N)c4c(=O)c(C(=O)O)cn(C5CC5)c4c3F)cc21.Cl (stereo not shown) [Example 346, 5-amino-1-cyclopropyl-6,8-difluoro-7-(4-(methylamino)-4,5,6,7-tetrahydro-1-benzothien-2-yl)-4-oxo-1,4-dihydroquinoline-3-carboxylic acid hydrochloride]
> 300 °C (dec.)	–	–	–	–	–	Br.CC1(C)CNCc2cc(-c3ccc4c(=O)c(C(=O)O)cn(C5CC5)c4n3)sc21
–	0.06 µg/mL	0.06 µg/mL	0.015 µg/mL	0.5 µg/mL	0.03 µg/mL	COc1c(-c2cc3c(s2)CCCC3=NOCc2ccccc2)ccc2c(=O)c(C(=O)O)cn(C3CC3)c12 [Example 73]
–	0.06 µg/mL	0.125 µg/mL	0.03 µg/mL	0.25 µg/mL	0.125 µg/mL	COc1c(-c2cc3c(s2)CCC(C)C3N)ccc2c(=O)c(C(=O)O)cn(C3CC3)c12.Cl (stereo not shown) [Example 199, 7-(4-amino-5-methyl-4,5,6,7-tetrahydro-1-benzothien-2-yl)-1-cyclopropyl-8-methoxy-4-oxo-1,4-dihydro-3-quinolinecarboxylic acid hydrochloride]

Compound	melting point	Antibacterial Activity (MIC's), F [1]	Antibacterial Activity (MIC's), B [2]	Antibacterial Activity (MIC's), A [3]	Antibacterial Activity (MIC's), D (Escherichia coli JUHL)	Antibacterial Activity (MIC's), E [4]
COc1c(-c2cc3c(s2)CCCC3=NNC(N)=O)ccc2c(=O)c(C(=O)O)cn(C3CC3)c12 [Example 80, 7-((4E/Z)-4-((aminocarbonyl)hydrazono)-4,5,6,7-tetrahydro-1-benzothien-2-yl)-1-cylopropyl-8-methoxy-4-oxo-1,4-dihydro-3-quinolinecarboxylic acid]	–	0.03 µg/mL	> 64 µg/mL	32 µg/mL	> 64 µg/mL	0.06 µg/mL
